Test results from patent US11324706B2, “Composition for inhibiting growth of breast cancer stem cells containing phenylacetaldehyde” (JEJU NATIONAL UNIVERSITY INDUSTRY-ACADEMIC COOPERATION …, priority 2016, dated 2022).

Assays:
MDA-MB-231 cells [1] = assay: Scratch migration assay; format: cell-based, human
Protocol: Scratch curing of MDA-MB-231 cells was imaged at […] with or without PAA treatment;
MDA-MB-231 cells were seeded on a 6-well plate to grow cells until confluence reached 90%. Scratch was created on the cell layer using a sterilized white micro-pipette tip. After washing with DMEM medium, breast cancer cells were treated with PAA or DMSO. 16 hours later, the scratch region was imaged with a 10× optical microscope.

MCF-7 cells = assay: Xenograft tumor model; format: in vivo, NOD-SCID (BALB/cSIc (nu/nu)) female nude mice
Protocol: FIGS. 3A, 3B and 3C show effects of PAA on tumor growth in xenograft tumor models. 3 million cells were injected into breast fat pads of NOD-SCID female nude mice;
The dose of used drug is 10 mg/kg. 9 weeks later, the image was captured with Odyssey® image (LICOR, Pearl image system, USA). Using an IRDye 800 CW optical probe (2DG), a high grade of tumor was used to detect breast tumors at a channel of 800 nm and was represented by pseudo-color;
A tumor growth curve was monitored during the test period;
Tumor volume was measured after initiation of treatment. * means p<0.05, as compared to control group. A representative image was captured at the end of 9 weeks of treatment. Results are shown as a vehicle-treated control group, a PAA-treated mouse and a Dox-treated mouse;
24 NOD-SCID (BALB/cSIc (nu/nu)) female nude mice in total were divided into four groups producing breast cancer cells. Six mice as a negative control group were not subjected to chemotherapy. However, the volumes of tumors of control group mice were measured every three days using the Equation of (width^2×length)/2 (FIG. 3). PAA was administered at the optimal dose of 10 to 50 mg/kg to six other nude mice via breast fat pad injection. In addition, doxorubicin (Dox) was administered daily in a low dose of 10 mg/kg to other six nude mice as a positive control group via breast fat pad injection. The last group was used as a non-tumor group without treatment.

MDA-MB-231 cells [2] = assay: Clonogenicity assay (colony formation); format: cell-based, human; conditions: MDA-MB-231, 7 days
Protocol: The dissociated 1,000 MDA-MB-231 cells were seeded on a 6-well plate and treated with marked concentrations of PAA and DMSO for 7 days. A representative image of colonies was recorded. Shown data is represented as a mean±SD in three independent tests. * means P<0.05, as compared to DMSO-treated control group;
MDA-MB-231 cells were seeded at a low density on a 6-well plate and treated with different concentrations of PAA in DMEM. After 24 hours, the medium was replaced with fresh medium and incubated for cell growth for 7 days. Grown colonies were counted.

nuclear p65 = assay: Western blotting of mammosphere nuclear proteins, p65; format: cell-based, human; conditions: MCF-7-derived mammospheres
Protocol: (§1) The proteins isolated from mammospheres of PAA-treated MCF-7 were separated on 10% SDS-PAGE and transferred to a polyvinylidene difluoride membrane (Millipore, Bedford, Mass., USA). The membrane was blocked in 5% skim milk-containing PBS-Tween 20 (0.1%, v/v) for 30 minutes at room temperature. The blot was cultured at 4° C. in a blocking solution containing primary antibodies overnight. The used primary antibodies were as follows: Stat3, p65, Lamin B, and phospho-Stat3 (Cell Signaling, Beverly, Mass., USA). β-actin antibodies (Santa Cruz Biotechnology) were used as a loading control group. After washing with PBS-Tween 20 (0.1%, v/v), the blot was cultured in a horseradish peroxidase-conjugated secondary antibody and subjected to photosensitive treatment with a chemiluminescent detection kit (Santa Cruz Biotechnology).
(§2) In order to investigate cellular functions of PAA, STAT3 and NF-κB pathways were investigated in MCF-7-derived mammospheres subjected to treatment with PAA. As compared to the control group, PAA reduced phosphorylation of nuclear STAT3 proteins.

[3] = test system: nuclear STAT3 proteins (phosphorylation); assay: Western blotting of mammosphere nuclear proteins, pStat3; format: cell-based, human; conditions: MCF-7-derived mammospheres, compared to the control group
Protocol: as §1, §2

MDA-MB-231 cells [4] = assay: Annexin V/PI staining analysis (FACS); format: cell-based, human; conditions: MDA-MB-231, PAA 0.2 mM, 24 hours
Protocol: (FIGS. 1D, E and F) show effects of PAA on apoptosis of breast cancer cells. MDA-MB-231 cells were treated with PAA for 24 hours, and apoptotic cells were analyzed by FACS using an Annexin V-PI staining kit. Caspase 3/7 activity in MDA-MB-231 cells was analyzed using a Caspase-Gloss 3/7 kit. By fluorescent staining, apoptotic cells were analyzed and nuclei thereof were stained with Hoechst 33258 in breast cancers (magnified, 200×) (FIG. 1);
[…] In accordance with the manufacturer's instructions, the cancer cells were double-stained with PI and FITC-Annexin V. The sample was analyzed by flow cytometry (Accuri C6, BD, San Diego, Calif., USA).

Cancer stem cells = assay: Formation of CSCs under PAA steam (scent); format: cell-based; conditions: PAA steam (1 mM), 7 days
Protocol: Cancer stem cells were cultured in the presence of PAA steam (1 mM) and vehicle (methanol) for 7 days.
Then, formation of CSCs was analyzed by emission of PAA scent (FIG. 4C). As a result, PAA inhibited formation of CSCs. Volatile materials, i.e., PAA and phenylethanol, which are the most important for roses and tomatoes were derived from phenylalanine, as shown in FIG. 5A (FIG. 5A). In order to investigate whether or not phenylalanine-derived volatile materials, i.e., PAA and phenylethanol, and structural analogs (2- and 3-phenylpropionaldehydes) can inhibit formation of tumorspheres, these volatile materials were exposed to MCF-7.

[5] = test system: Nanog, Sox2, Oct4 and CD44 genes; assay: Real-time PCR of CSC markers in mammospheres; format: cell-based, human; conditions: β-actin internal control
Protocol: In accordance with the manufacturer's instructions, the level of transcriptome was measured with one step SYBR PrimeScript RT-PCR kit (Takara, Tokyo, Japan) using SYBR green as a double-stranded DNA-specific dye. One-step RT-PCR reaction was conducted in the final volume of 20 μl per reaction containing 1 μg of total RNA, 10 μl of 2× one step SYBR RT-PCR buffer IV, 1 μl of PrimeScript 1 step enzyme mix II, and 10 μM of PCR forward primers and PCR reverse primers for CD44, NANOG, OCT4, SOX2, and β-actin. The forward and reverse primers are as follow: […]
Relative expression amounts of mRNAs of target genes were calculated using a comparative CT method. At least three independent PCR procedures were conducted in accordance with statistical analysis. PCR products were normalized with β-actin genes, as an internal control.

O=CCc1ccccc1 [PAA, phenylacetaldehyde]
migration of MDA-MB-231 cells (MDA-MB-231 cells [1]): concentration-dependently inhibited
tumor volume (MCF-7 cells; compared with Doxorubicin positive control group (10 mg/kg)): less than that of Doxorubicin
tumor weight (MCF-7 cells; compared with control group not treated with PAA): less than control group
tumor volume (MCF-7 cells; compared with control group not treated with PAA, breast fat pad injection): less than that of a control group
formation of colonies (MDA-MB-231 cells [2]): concentration-dependently inhibited
protein levels of nuclear p65 (nuclear p65): did not reduce
phosphorylation of nuclear STAT3 proteins [3]: reduced
number of breast cancer cells (Annexin V+) killed (MDA-MB-231 cells [4]): increased
formation of CSCs by emission of PAA scent (Cancer stem cells): inhibited
expression of self-renewal genes such as Nanog, Sox2, Oct4, and CD44 [5]: reduced
